Among the data in PubChem BioAssay AID292 (DTP/NCI, 2004) are T/C values, retold here.

The experiment concerns B6C3F1 mice, ip Sarcoma M5076, median survival T/C. The experiment can be described thus: NCI In Vivo Anticancer Drug Screen. Data for tumor model Sarcoma M5076 (intraperitoneal) in B6C3F1 mice. The settings on record: endpoint: median survival time, higher = longer survival. The method, boiled down:
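Survival measured in treated (T) and vehicle control (C) mice with transplantable tumour; result given as T divided by C.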

Where [1] appears, read: dose: 50.0 mg/kg/injection, schedule: Q04DX004 (ip), vehicle: saline with Tween-80.
[2] abbreviates: dose: 100.0 mg/kg/injection, schedule: Q04DX004 (ip), vehicle: saline with Tween-80.
[3] abbreviates: dose: 200.0 mg/kg/injection, schedule: Q04DX004 (ip), vehicle: saline with Tween-80.
Setting [4] is: dose: 400.0 mg/kg/injection, schedule: Q04DX004 (ip), vehicle: saline with Tween-80.
The mark [5] stands for this setting: dose: 25.0 mg/kg/injection, schedule: Q04DX004 (ip), vehicle: saline with Tween-80.
The mark [6] stands for this setting: dose: 50.0 mg/kg/injection, schedule: Q04DX004 (ip), vehicle: Klucel + Tween-80.
Where [7] appears, read: dose: 100.0 mg/kg/injection, schedule: Q04DX004 (ip), vehicle: Klucel + Tween-80.

“And” between values parts separate entries of the source, which are not always exact repeats. Equal values may be shown once. Toxic doses and inconclusive results are not listed.

As for `Nc1ccc2ccc(NS(=O)(=O)N3CCCCC3)cc2c1`, the T/C was 100 % of control under setting [1], 107 % of control under setting [2], 112 % of control under setting [3] and 120 % of control under setting [4].
Turning to `Nc1n[n+](-c2ccccc2)no1`, the T/C was 111 % of control and 117 % of control (dose: 6.25 mg/kg/injection, schedule: Q04DX004 (ip), vehicle: water); 151 % of control (dose: 12.5 mg/kg/injection, schedule: Q01DX009 (ip), vehicle: water); 118 % of control (dose: 12.5 mg/kg/injection, schedule: Q04DX004 (ip), vehicle: water); 168 % of control (dose: 25.0 mg/kg/injection, schedule: Q01DX009 (ip), vehicle: water); 172 % of control and 235 % of control (dose: 50.0 mg/kg/injection, schedule: Q01DX009 (ip), vehicle: water).
Consider `Nc1nncs1`, for which the T/C by setting is: under setting [2], 111 % of control; (dose: 100.0 mg/kg/injection, schedule: Q04DX005 (ip), vehicle: saline with Tween-80) 112 % of control; (dose: 100.0 mg/kg/injection, schedule: Q04DX005 (ip), vehicle: saline) 114 % of control and 116 % of control; under setting [3], 112 % of control; (dose: 200.0 mg/kg/injection, schedule: Q04DX005 (ip), vehicle: saline with Tween-80) 112 % of control; (dose: 200.0 mg/kg/injection, schedule: Q04DX005 (ip), vehicle: saline) 109 % of control and 121 % of control. The T/C was 121 % of control under setting [4]; 95 % of control (dose: 400.0 mg/kg/injection, schedule: Q04DX005 (ip), vehicle: saline); 151 % of control (dose: 800.0 mg/kg/injection, schedule: Q04DX005 (ip), vehicle: saline).
In the case of `O=S1ON=C(C2CCC(C3=NOS(=O)O3)C2)O1` (centres undefined), the T/C is 108 % of control under setting [5], 102 % of control under setting [1], 103 % of control under setting [2] and 87 % of control under setting [3].
For the molecule `O=C(O)c1cc(C(=O)O)c(C(=O)O)cc1C(=O)O.[NH2-].[NH2-].[NH2-].[NH2-].[Pt+2].[Pt+2]`, the T/C is 99 % of control (dose: 0.12 mg/kg/injection, schedule: Q04DX004 (ip), vehicle: water); 112 % of control (dose: 0.25 mg/kg/injection, schedule: Q04DX004 (ip), vehicle: water); 100 % of control (dose: 0.5 mg/kg/injection, schedule: Q04DX004 (ip), vehicle: water); 97 % of control (dose: 1.0 mg/kg/injection, schedule: Q04DX004 (ip), vehicle: water); 94 % of control (dose: 2.0 mg/kg/injection, schedule: Q04DX004 (ip), vehicle: water); 103 % of control and 108 % of control (dose: 4.0 mg/kg/injection, schedule: Q04DX004 (ip), vehicle: water). In addition, the T/C reads like this: (dose: 8.0 mg/kg/injection, schedule: Q04DX004 (ip), vehicle: water) 113 % of control and 119 % of control; (dose: 32.0 mg/kg/injection, schedule: Q04DX004 (ip), vehicle: water) 150 % of control and 241 % of control; (dose: 64.0 mg/kg/injection, schedule: Q04DX004 (ip), vehicle: water) 250 % of control.
On to `O=C1N=NC2=C1c1c3ccccc3c(O)n1CC2`, for which the T/C by setting is: (dose: 25.0 mg/kg/injection, schedule: Q04DX004 (ip), vehicle: water) 97 % of control; (dose: 50.0 mg/kg/injection, schedule: Q04DX004 (ip), vehicle: water) 95 % of control; (dose: 100.0 mg/kg/injection, schedule: Q04DX004 (ip), vehicle: water) 93 % of control; (dose: 200.0 mg/kg/injection, schedule: Q04DX004 (ip), vehicle: water) 100 % of control.
`Clc1cc2c(nn1)Nc1ccccc1S2`: the T/C reads like this: under setting [1], 100 % of control; under setting [2], 95 % of control; under setting [3], 95 % of control.
Turning to `O=C(O)c1ccc(NC(=O)C2C(=O)C(=O)N(c3ccc(C(=O)O)cc3)C2=O)cc1` (centres undefined), the T/C is 108 % of control under setting [6]; 100 % of control under setting [7]; 91 % of control (dose: 200.0 mg/kg/injection, schedule: Q04DX004 (ip), vehicle: Klucel + Tween-80); 97 % of control (dose: 400.0 mg/kg/injection, schedule: Q04DX004 (ip), vehicle: Klucel + Tween-80).
On to `O=c1c2ccccc2nc(-c2ccccc2)n1-c1nccs1`, for which the T/C is 94 % of control under setting [5], 89 % of control under setting [3] and 90 % of control under setting [4].
As for `CC(=O)[O][Pb]([O]C(C)=O)([c]1ccccc1)[c]1ccccc1`, the T/C (dose: 50.0 mg/kg/injection, schedule: Q04DX004 (ip), vehicle: Klucel (hydroxypropylcellulose) (HPC)) was 100 % of control; the T/C (dose: 100.0 mg/kg/injection, schedule: Q04DX004 (ip), vehicle: Klucel (hydroxypropylcellulose) (HPC)) was 104 % of control; the T/C (dose: 200.0 mg/kg/injection, schedule: Q04DX004 (ip), vehicle: Klucel (hydroxypropylcellulose) (HPC)) was 99 % of control; the T/C (dose: 400.0 mg/kg/injection, schedule: Q04DX004 (ip), vehicle: Klucel (hydroxypropylcellulose) (HPC)) was 97 % of control; the T/C (dose: 800.0 mg/kg/injection, schedule: Q04DX004 (ip), vehicle: Klucel (hydroxypropylcellulose) (HPC)) is 114 % of control.
With `CC1/C=C/C=C/CC/C=C/C=C/C=C/C=C/C(OC2OC(C)C(O)C(N)C2O)CC2OC(CC(O)C(O)CCC(O)CC(O)CC(O)CC(=O)OC(C)C(C)C1O)CC(O)C2C(=O)O` (centres undefined), the T/C (dose: 6.25 mg/kg/injection, schedule: Q04DX004 (ip), vehicle: saline with Tween-80) is 122 % of control; the T/C (dose: 12.5 mg/kg/injection, schedule: Q04DX004 (ip), vehicle: saline with Tween-80) was 117 % of control; the T/C under setting [5] is 118 % of control and 122 % of control; the T/C under setting [1] was 96 % of control and 97 % of control; the T/C under setting [2] is 96 % of control and 107 % of control.
Take `C=CC(=O)NCNC(=O)C=C`: the T/C is, setting by setting: (dose: 50.0 mg/kg/injection, schedule: Q04DX004 (ip), vehicle: suspension in saline) 99 % of control; (dose: 100.0 mg/kg/injection, schedule: Q04DX004 (ip), vehicle: suspension in saline) 115 % of control.
On to `CC(=O)N1CCCN(C)/C1=N/[N+](=O)[O-]`, for which the T/C is 100 % of control (dose: 37.5 mg/kg/injection, schedule: Q04DX004 (ip), vehicle: saline); 104 % of control (dose: 75.0 mg/kg/injection, schedule: Q04DX004 (ip), vehicle: saline); 104 % of control (dose: 150.0 mg/kg/injection, schedule: Q04DX004 (ip), vehicle: saline); 100 % of control (dose: 300.0 mg/kg/injection, schedule: Q04DX004 (ip), vehicle: saline).
`O=c1cc(CCl)[nH]nc1CCl`: the T/C (dose: 3.0 mg/kg/injection, schedule: Q04DX004 (ip), vehicle: saline with Tween-80) is 111 % of control; the T/C (dose: 6.0 mg/kg/injection, schedule: Q04DX004 (ip), vehicle: saline with Tween-80) is 110 % of control; the T/C (dose: 12.0 mg/kg/injection, schedule: Q04DX004 (ip), vehicle: saline with Tween-80) was 112 % of control; the T/C (dose: 24.0 mg/kg/injection, schedule: Q04DX004 (ip), vehicle: saline with Tween-80) was 120 % of control; the T/C (dose: 48.0 mg/kg/injection, schedule: Q04DX004 (ip), vehicle: saline with Tween-80) was 114 % of control.
As to `O=S(=O)(O)O`, the T/C (dose: 30.0 mg/kg/injection, schedule: Q01DX009 (ip), vehicle: water) was 103 % of control and the T/C (dose: 44.0 mg/kg/injection, schedule: Q01DX009 (ip), vehicle: water) was 96 % of control.
`CC(=O)C1C(=O)C(=O)N(c2cc(C)ccc2O)C1=O` (centres undefined): the T/C runs as follows: under setting [6], 106 % of control; under setting [7], 100 % of control.
Turning to `Cn1c2c(c3nc(N)nc(N)c3c1=O)CCc1ccccc1-2`, the T/C reads like this: (dose: 25.0 mg/kg/injection, schedule: Q04DX004 (ip), vehicle: distilled water + alcohol) 100 % of control; (dose: 50.0 mg/kg/injection, schedule: Q04DX004 (ip), vehicle: distilled water + alcohol) 104 % of control; (dose: 100.0 mg/kg/injection, schedule: Q04DX004 (ip), vehicle: distilled water + alcohol) 100 % of control.
Consider `O=[N+]([O-])c1ccc(/C=C/C=C/C=C/C=C/c2ccc(S(=O)(=O)F)cc2Cl)c(Cl)c1`, for which the T/C is 95 % of control (dose: 18.75 mg/kg/injection, schedule: Q04DX004 (ip), vehicle: saline with Tween-80); 96 % of control (dose: 37.5 mg/kg/injection, schedule: Q04DX004 (ip), vehicle: saline with Tween-80); 98 % of control (dose: 75.0 mg/kg/injection, schedule: Q04DX004 (ip), vehicle: saline with Tween-80).
For `Cc1cc2cc3cc(C)c(N)cc3nc2cc1N`, the T/C runs as follows: under setting [5], 110 % of control; under setting [1], 117 % of control; under setting [2], 113 % of control.
